# Source: patent publication US20260130933A1, “PHARMACEUTICAL COMPOSITION FOR PREVENTION OR TREATMENT OF NEPHROPATHY AND/OR DIABETES MELLITUS, COMPRISING ENAVOGLIFLOZIN” (DAEWOONG PHARMACEUTICAL CO., LTD., priority 2022, published 2026)
# Test: Example 3: phase 3 trial, enavogliflozin 0.3 mg vs dapagliflozin 10 mg once a day for 24 weeks added to metformin and gemigliptin in patients with type 2 diabetes (same endpoints, rescue drug)
# Type: in vivo, human
# Settings: week 18
# Method: 1) when Metformin (≥1,000 mg/Day) was Administered at a Constant Dose for at Least 8 Weeks Prior to Pre-Visit (Pre-Screening) • Metformin (≥1,000 mg/day) and gemigliptin (50 mg/day) were co-administered during the 8-week stabilization period. […] 4) when Metformin (≥1,000 mg/Day) and Gemigliptin (50 mg/Day) were Co-Administered at Constant Doses for at Least 8 Weeks Prior to Pre-Visit (Prescreening) • Without a separate stabilization period, Pre-visit (pre-screening) was Visit 1 (screening).
# Subjects who met the inclusion/exclusion criteria continued to receive metformin and gemigliptin while receiving a placebo of the clinical trial drug in a single-blind (subject-blinded) state for a 2-week run-in period.
# Here, the randomized subjects were stratified according to the administration therapy (co-administration with two or less agents (one or two agents) or three or more agents) of a conventional hypoglycemic agent (before washout of another hypoglycemic agent) within 24 weeks prior to obtaining written informed consent and by an HbA1c value (<8% or ≥8%) at Visit 1 (screening) measured in the central laboratory.
# The randomized subjects were administered two tablets of the clinical trial drug corresponding to each administration group once a day, and then visited the institution at weeks 6, 12, 18, and 24 during the 24-week administration period to conduct efficacy and safety assessments. In addition, during the clinical trial period, they were instructed to exercise regularly and control their diet without changing their daily life patterns.
# • 1) Change in HbA1c at week 24 after administration of clinical trial drug compared to Visit 2 (randomization)
# • 1) Change in HbA1c at each time point of weeks 6, 12, and 18 after administration of clinical trial drug compared to Visit 2 (randomization) • 2) Change in FPG at each time point of weeks 6, 12, 18, and 24 after administration of clinical trial drug compared to Visit 2 (randomization) • 3) Proportion of subjects achieving HbA1c<7% at each time point of weeks 6, 12, 18, and 24 after administration of clinical trial drug • 4) Proportion of subjects achieving HbA1c<6.5% at each time point of weeks 6, 12, 18, and 24 after administration of clinical trial drug • 5) Proportion of subjects achieving therapeutic response (HbA1c change (HbA1c at Visit 2—HbA1c at each evaluation time point)>0.5% or HbA1c<7% at each evaluation time point compared to Visit 2 (randomization)) at each time point of weeks 6, 12, 18, and 24 after administration of clinical trial drug • 6) Proportion of subjects achieving therapeutic response (HbA1c change (HbA1c at Visit 2—HbA1c at each evaluation time point)>0.7% or HbA1c<7% at each evaluation time point compared to Visit 2 (randomization)) at each time point of weeks 6, 12, 18, and 24 after administration of clinical trial drug • 7) Proportion of subjects achieving therapeutic response (HbA1c change (HbA1c at Visit 2—HbA1c at each evaluation time point)>1% or HbA1c<7% at each evaluation time point compared to Visit 2 (randomization)) at each time point of weeks 6, 12, 18, and 24 after administration of clinical trial drug
# [1] = modified per-protocol set 2, enavogliflozin 0.3 mg, dapagliflozin 10 mg
# [2] = per-protocol set, enavogliflozin 0.3 mg vs dapagliflozin 10 mg
# [3] = per-protocol set, enavogliflozin 0.3 mg, dapagliflozin 10 mg
smiles,measurement,setting,value
"OC[C@H]1O[C@@H](c2cc(Cc3ccc(C4CC4)cc3)c(Cl)c3c2CCO3)[C@H](O)[C@@H](O)[C@@H]1O [Enavogliflozin, (2S,3R,4R,5S,6R)-2-(7-chloro-6 (4-cyclopropylbenzyl)-2,3-dihydrobenzofuran-4-yl)-6-(hydroxymethyl)tetrahydro-2H-pyran-3,4,5-triol]","Change from baseline in diastolic blood pressure, Median",modified per-protocol set 2,−5.00 mmHg
same,"Diastolic blood pressure, Mean",modified per-protocol set 2,72.53 mmHg
same,"Diastolic blood pressure, Median",modified per-protocol set 2,72.00 mmHg
same,"Change from baseline in systolic blood pressure, ANCOVA LS mean difference","modified per-protocol set 2, enavogliflozin 0.3 mg vs dapagliflozin 10 mg",−1.66 mmHg
same,"Change from baseline in systolic blood pressure, ANCOVA LS mean",[1],−6.82 mmHg
same,"Change from baseline in systolic blood pressure, Mean",[1],−7.37 mmHg
same,"Change from baseline in systolic blood pressure, Median",[1],−7.00 mmHg
same,"Systolic blood pressure, Mean",[1],119.95 mmHg
same,"Systolic blood pressure, Median",[1],119.00 mmHg
same,"Adiponectin, Mean",per-protocol set,7.03 µg/mL
same,"Adiponectin, Median",per-protocol set,6.26 µg/mL
same,"Change from baseline in HOMA-IR, ANCOVA LS mean",per-protocol set,−1.14
same,"Change from baseline in HOMA-IR, LS mean difference (enavogliflozin − dapagliflozin)",per-protocol set,−0.13
same,"Change from baseline in HOMA-IR, Mean",per-protocol set,−1.16
same,"Change from baseline in HOMA-IR, Median",per-protocol set,−0.82
same,"Change from baseline in HOMA-β, ANCOVA LS mean",per-protocol set,5.97
same,"Change from baseline in HOMA-β, LS mean difference (enavogliflozin − dapagliflozin)",per-protocol set,1.48
same,"Change from baseline in HOMA-β, Mean",per-protocol set,6.09
same,"Change from baseline in HOMA-β, Median",per-protocol set,4.10
same,"Change from baseline in UACR, ANCOVA LS mean",per-protocol set,-11.08 g/kg
same,"Change from baseline in UACR, LS mean difference (enavogliflozin − dapagliflozin)",per-protocol set,-2.18 g/kg
same,"Change from baseline in UACR, Mean",per-protocol set,-12.07 g/kg
same,"Change from baseline in UACR, Median",per-protocol set,-1.50 g/kg
same,"Change from baseline in UGCR, ANCOVA LS mean",per-protocol set,58.74 mg/mg
same,"Change from baseline in UGCR, LS mean difference (enavogliflozin − dapagliflozin)",per-protocol set,13.34 mg/mg
same,"Change from baseline in UGCR, Mean",per-protocol set,57.23 mg/mg
same,"Change from baseline in UGCR, Median",per-protocol set,54.56 mg/mg
same,"Change from baseline in adiponectin, ANCOVA LS mean",per-protocol set,0.78 µg/mL
same,"Change from baseline in adiponectin, LS mean difference (enavogliflozin − dapagliflozin)",per-protocol set,0.42 µg/mL
same,"Change from baseline in adiponectin, Mean",per-protocol set,0.80 µg/mL
same,"Change from baseline in adiponectin, Median",per-protocol set,0.60 µg/mL
same,"Change from baseline in leptin, ANCOVA LS mean",per-protocol set,-1.46 ng/mL
same,"Change from baseline in leptin, LS mean difference (enavogliflozin − dapagliflozin)",per-protocol set,-0.40 ng/mL
same,"Change from baseline in leptin, Mean",per-protocol set,-1.63 ng/mL
same,"Change from baseline in leptin, Median",per-protocol set,-0.89 ng/mL
same,"HOMA-IR (insulin resistance), Mean",per-protocol set,1.74
same,"HOMA-IR (insulin resistance), Median",per-protocol set,1.42
same,"HOMA-β (beta-cell function), Mean",per-protocol set,49.26
same,"HOMA-β (beta-cell function), Median",per-protocol set,40.00
same,"Leptin, Mean",per-protocol set,8.87 ng/mL
same,"Leptin, Median",per-protocol set,5.86 ng/mL
same,"UACR, Mean",per-protocol set,25.02 g/kg
same,"UACR, Median",per-protocol set,11.30 g/kg
same,"UGCR, Mean",per-protocol set,57.96 mg/mg
same,"UGCR, Median",per-protocol set,54.71 mg/mg
same,"Achieving HbA1c target of <6.5%, odds ratio (logistic regression model)",[2],1.20
same,"Achieving HbA1c target of <7%, odds ratio (logistic regression model)",[2],1.36
same,"Change from baseline in FPG, ANCOVA LS mean difference",[2],-4.22 mg/dL
same,"Change from baseline in HbA1c, ANCOVA LS mean difference",[2],−0.07 % p
same,"Change from baseline in body weight, ANCOVA LS mean difference",[2],-0.15 kg
same,"Change from baseline in fasting C-peptide, ANCOVA LS mean difference",[2],-0.02 ng/mL
same,"Therapeutic glycemic response 1, odds ratio (logistic regression model)",[2],1.02
same,"Therapeutic glycemic response 2, odds ratio (logistic regression model)",[2],1.09
same,"Therapeutic glycemic response 3, odds ratio (logistic regression model)",[2],1.22
same,"Body weight, Mean",[3],66.18 kg
same,"Change from baseline in FPG, ANCOVA LS mean",[3],-27.77 mg/dL
same,"Change from baseline in FPG, Mean",[3],-28.00 mg/dL
same,"Change from baseline in FPG, Median",[3],-24.00 mg/dL
same,"Change from baseline in HbA1c, ANCOVA LS mean",[3],−0.83 % p
same,"Change from baseline in HbA1c, Mean",[3],−0.84 % p
same,"Change from baseline in HbA1c, Median",[3],−0.72 % p
same,"Change from baseline in body weight, ANCOVA LS mean",[3],-3.16 kg
same,"Change from baseline in body weight, Mean",[3],-3.10 kg
same,"Change from baseline in body weight, Median",[3],-2.90 kg
same,"Change from baseline in fasting C-peptide, ANCOVA LS mean",[3],-0.08 ng/mL
same,"Change from baseline in fasting C-peptide, Mean",[3],-0.09 ng/mL
same,"Change from baseline in fasting C-peptide, Median",[3],-0.10 ng/mL
same,"FPG, Mean",[3],111.10 mg/dL
same,"FPG, Median",[3],109.00 mg/dL
same,"Fasting C-peptide, Mean",[3],0.64 ng/mL
same,"Fasting C-peptide, Median",[3],0.60 ng/mL
same,"HbA1c, Mean",[3],6.95%
